One assay addresses T1, human 5-HT2C receptor (Homo sapiens, UniProt P28335).
T1 sequence (P28335 33-458): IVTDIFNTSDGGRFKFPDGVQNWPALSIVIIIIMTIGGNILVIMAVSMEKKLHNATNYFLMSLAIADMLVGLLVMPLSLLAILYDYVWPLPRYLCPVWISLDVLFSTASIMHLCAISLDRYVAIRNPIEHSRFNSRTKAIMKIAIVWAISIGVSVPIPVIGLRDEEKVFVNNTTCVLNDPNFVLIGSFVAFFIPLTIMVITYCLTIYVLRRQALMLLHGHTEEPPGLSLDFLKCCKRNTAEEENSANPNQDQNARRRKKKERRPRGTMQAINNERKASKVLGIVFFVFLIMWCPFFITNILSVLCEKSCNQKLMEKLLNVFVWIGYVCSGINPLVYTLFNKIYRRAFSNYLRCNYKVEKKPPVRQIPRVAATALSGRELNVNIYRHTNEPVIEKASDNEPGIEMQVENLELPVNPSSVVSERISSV
The assay is described as follows: 5-HT2C receptor-stimulated calcium mobilization (FLIPR) in CHO cells.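 On all read-outs here: Fluo-3-AM fluorescence read on FLIPR every 1 s, agonist added after 10 baseline reads, response taken as peak minus lowest raw fluorescence count.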 In kind it is cell-based. Conditions: for Emax: CHO; for EC50: calcium mobilization, CHO cells stably expressing human 5-HT2C, read-out: 5-HT2C Function EC50. For orientation: Calcium flux is commonly read through the fluorescence of an indicator in the cells.

Assay [1] concerns the target T2, human 5-hydroxytryptamine-2C (h5-HT2C) receptor (Homo sapiens, UniProt P28335).
T2 construct: expressed in transfected cells; host or cells: CHO (Chinese Hamster Ovary) cells; membranes
T2 sequence (P28335 33-458): T1 sequence (P28335 33-458)
Put plainly: [125I]DOI binding to membranes of CHO cells expressing the human 5-HT2C receptor. Conditions: [125I]DOI radioligand, CHO cell membranes, room temperature 60 min; read-out: 5-HT2C Affinity Ki.

[2] abbreviates: percentage of the response observed with a maximally effective concentration of 5-HT, read-out: 5-HT2C Function Emax (%).

Structures are written as SMILES. Where two headings read alike, the source gives them in different places.

On to `Cc1ccccc1-c1cc(C#N)cc2c1OC(CN)C2` (racemic) [Example 311, (±)-2-(aminomethyl)-7-(2-methylphenyl)-2,3-dihydro-1-benzofuran-5-carbonitrile], for which, at human 5-HT2C receptor (setting [2]), the Emax worked out at 90%. The EC50 on human 5-HT2C receptor came to 63 nM. Further, the Ki in assay [1] was 25 nM.

As for `CNCC1Cc2cccc(-c3c(Cl)cc(Cl)cc3Cl)c2O1` (racemic) [Example 555, (±)-{N-methyl-1-[(7-(2,4,6-trichlorophenyl)-2,3-dihydro-1-benzofuran-2-yl]methanamine], the Emax at human 5-HT2C receptor (setting [2]) was found to be 80%. For the same molecule, the EC50 on human 5-HT2C receptor worked out at 4 nM. In addition, in assay [1], the inhibition constant Ki is 0.6 nM.

As for `NCC1Cc2cccc(-c3cccnc3)c2O1` (racemic) [Example 170, (±)-[(7-pyridin-3-yl-2,3-dihydro-1-benzofuran-2-yl)methyl]amine], the Emax at human 5-HT2C receptor (setting [2]) is 90%. Besides, the EC50 at human 5-HT2C receptor came out at 14 nM. Besides, in assay [1], the Ki amounted to 3.3 nM.

On to `NCC1Cc2cccc(-c3cc(Cl)ccc3Cl)c2O1` (single isomer, unassigned; (-)) [Example 165, (−)-{[7-(2,5-dichlorophenyl)-2,3-dihydro-1-benzofuran-2-yl]methyl}amine], for which, on human 5-HT2C receptor, the EC50 was 80 nM. The “5-HT2C Function Emax (%)” value at human 5-HT2C receptor (percentage of the response observed with a maximally effective concentration of 5-HT) amounted to 70%. Also, the inhibition constant Ki in assay [1] was determined as 18 nM.

As for `Cc1cccc(C)c1-c1cc(C(F)(F)F)cc2c1OC(CN)C2` (racemic) [Example 338, (±)-{[7-(2,6-dimethylphenyl)-5-(trifluoromethyl)-2,3-dihydro-1-benzofuran-2-yl]methyl}amine], the Emax at human 5-HT2C receptor (setting [2]) was 90%. For the same molecule, the EC50 on human 5-HT2C receptor stood at 44 nM. Besides, the Ki in assay [1] stood at 14 nM.

Regarding `COc1cc2c(c(-c3cccc(C)c3C)c1)OC(CN)C2` (racemic) [Example 363, (±)-{[7-(2,3-dimethylphenyl)-5-methoxy-2,3-dihydro-1-benzofuran-2-yl]methyl}amine], at human 5-HT2C receptor (setting [2]), the Emax worked out at 70%. Moreover, at human 5-HT2C receptor, the half-maximal effective concentration (EC50) was 225 nM. Moreover, the inhibition constant Ki in assay [1] came out at 26 nM.

`NCC1Cc2cc(F)cc(-c3ccc(Cl)cc3Cl)c2O1` (racemic) [Example 216, (±)-{[7-(2,4-dichlorophenyl)-5-fluoro-2,3-dihydro-1-benzofuran-2-yl]methyl}amine]: the Emax at human 5-HT2C receptor (read-out: 5-HT2C Function Emax (%), percentage of the response observed with a maximally effective concentration of 5-HT) came out at 100%. The EC50 on human 5-HT2C receptor came out at 0.2 nM. In addition, the Ki in assay [1] worked out at 0.7 nM.

As for `Cc1cccc(-c2cc(Cl)cc3c2OC(CN)C3)c1C` (racemic) [Example 248, (±)-{[5-chloro-7-(2,3-dimethylphenyl)-2,3-dihydro-1-benzofuran-2-yl]methyl}amine], at human 5-HT2C receptor (setting [2]), the Emax was found to be 80%. Moreover, the EC50 on human 5-HT2C receptor turned out to be 225 nM. Moreover, the Ki in assay [1] came to 9 nM.

Consider `NCC1Cc2cc(C3CCCC3)cc(-c3ccccc3Cl)c2O1` (racemic) [Example 310, (±)-{[5-cyclopentyl-7-(2-chlorophenyl)-2,3-dihydro-1-benzofuran-2-yl]methyl}amine], for which the Emax at human 5-HT2C receptor (setting [2]) was found to be 90%. Further, the EC50 at human 5-HT2C receptor turned out to be 137 nM. Further, the inhibitory constant (Ki) in assay [1] amounted to 13 nM.

With `CNCC1Cc2cc(F)cc(-c3cc(OC)ccc3C)c2O1` (racemic) [Example 456, (±)-{[5-fluoro-7-(5-methoxy-2-methylphenyl)-2,3-dihydro-1-benzofuran-2-yl]methyl}methylamine], the Emax on human 5-HT2C receptor (setting [2]) amounted to 100%. Further, on human 5-HT2C receptor, the EC50 is 50 nM. Besides, in assay [1], the inhibitory constant (Ki) is 4.1 nM.

Consider `NCC1Cc2cc(Cl)cc(-c3ccsc3)c2O1` (single isomer, unassigned; (-)) [Example 91, (−)-(5-chloro-7-thien-3-yl-2,3-dihydro-1-benzofuran-2-yl)methylamine], for which, on human 5-HT2C receptor (setting [2]), the Emax worked out at 100%. Further, the EC50 at human 5-HT2C receptor was 45 nM. In addition, the Ki in assay [1] was found to be 5 nM.

As to `NCC1Cc2cc(F)cc(-c3ccoc3)c2O1` (racemic) [Example 204, (±)-{[5-fluoro-7-(3-furyl)-2,3-dihydro-1-benzofuran-2-yl]methyl}amine], on human 5-HT2C receptor (setting [2]), the Emax stood at 90%. Moreover, the EC50 on human 5-HT2C receptor was found to be 336 nM. In addition, the Ki in assay [1] amounted to 1.3 nM.

Turning to `NCC1Cc2cc(F)cc(-c3cccnc3)c2O1` (single isomer, unassigned; (-)) [Example 207, (−)-[(5-fluoro-7-pyridin-3-yl-2,3-dihydro-1-benzofuran-2-yl)methyl]amine], the Emax on human 5-HT2C receptor (setting [2]) worked out at 80%. On human 5-HT2C receptor, the EC50 is 112 nM. Further, the inhibition constant (Ki) in assay [1] worked out at 128 nM.

Regarding `NCC1Cc2cccc(-c3ccc(F)cc3F)c2O1` (single isomer, unassigned; (+)) [Example 147, (+)-1-[7-(2,4-difluorophenyl)-2,3-dihydro-1-benzofuran-2-yl]methanamine], the Emax on human 5-HT2C receptor (setting [2]) was 90%. For the same molecule, the EC50 on human 5-HT2C receptor turned out to be 7 nM. In assay [1], the Ki was determined as 1.3 nM.

With `CNCC1Cc2cc(Cl)cc(-c3cccc(F)c3F)c2O1` (racemic) [Example 463, (±)-{[5-chloro-7-(2,3-difluorophenyl)-2,3-dihydro-1-benzofuran-2-yl]methyl}methylamine], at human 5-HT2C receptor (setting [2]), the Emax stood at 80%. Further, the EC50 on human 5-HT2C receptor stood at 89 nM. In addition, the Ki in assay [1] worked out at 21 nM.

For the molecule `Cc1cccc(C)c1-c1cccc2c1OC(CN)C2` (single isomer, unassigned; (-)) [Example 57, (−)-1-[7-(2,6-dimethylphenyl)-2,3-dihydro-1-benzofuran-2-yl]methanamine], on human 5-HT2C receptor (setting [2]), the Emax is 80%. The EC50 on human 5-HT2C receptor came to 12 nM. Moreover, the Ki in assay [1] was 1 nM.

On to `Cc1ccccc1-c1ccc(F)c2c1OC(CN)C2` (racemic) [Example 99, (±)-1-[4-fluoro-7-(2-methylphenyl)-2,3-dihydro-1-benzofuran-2-yl]methanamine], for which the Emax at human 5-HT2C receptor (setting [2]) came to 60%. The EC50 on human 5-HT2C receptor amounted to 838 nM. For the same molecule, in assay [1], the Ki stood at 21 nM.

For `NCC1Cc2cc(Cl)cc(-c3ccc(Cl)cc3Cl)c2O1` (single isomer, unassigned; (-)) [Example 252, (−)-{[5-chloro-7-(2,4-dichlorophenyl)-2,3-dihydro-1-benzofuran-2-yl]methyl}amine], the Emax on human 5-HT2C receptor (setting [2]) was 100%. Besides, the 50% effective concentration (EC50) on human 5-HT2C receptor was 3 nM. For the same molecule, the inhibition constant (Ki) in assay [1] turned out to be 1.1 nM.

As for `Cc1cccc(-c2cc(F)cc3c2OC(CN)C3)c1` (racemic) [Example 198, (±)-{[5-fluoro-7-(3-methylphenyl)-2,3-dihydro-1-benzofuran-2-yl]methyl}amine], at human 5-HT2C receptor (setting [2]), the Emax was determined as 60%. Further, at human 5-HT2C receptor, the half-maximal effective concentration (EC50) is 903 nM. The inhibition constant Ki in assay [1] is 17 nM.

Regarding `Cc1cc2c(c(-c3cccc(Cl)c3)c1)OC(CN)C2` (racemic) [Example 288, (±)-{[7-(3-chlorophenyl)-5-methyl-2,3-dihydro-1-benzofuran-2-yl]methyl}amine], on human 5-HT2C receptor (setting [2]), the Emax worked out at 100%. Besides, the EC50 at human 5-HT2C receptor amounted to 38 nM. Besides, the inhibition constant (Ki) in assay [1] came to 7.1 nM.

As to `COc1ccc(-c2cc(Cl)cc3c2OC(CN)C3)c(OC)c1` (racemic) [Example 254, (±)-{[5-chloro-7-(2,4-dimethoxyphenyl)-2,3-dihydro-1-benzofuran-2-yl]methyl}amine], the Emax at human 5-HT2C receptor (setting [2]) is 90%. Moreover, the EC50 at human 5-HT2C receptor amounted to 11 nM. The inhibitory constant (Ki) in assay [1] amounted to 0.89 nM.

Take `CNCC1Cc2cc(OC)cc(-c3cc(F)ccc3F)c2O1` (racemic) [Example 498, (±)-{[7-(2,5-difluorophenyl)-5-methoxy-2,3-dihydro-1-benzofuran-2-yl]methyl}methylamine]: the Emax on human 5-HT2C receptor (setting [2]) is 70%. Moreover, the EC50 at human 5-HT2C receptor came to 326 nM. In assay [1], the Ki amounted to 35 nM.

Usually EC50 stands for the concentration at which the effect is half-maximal. As usually defined, the Ki is a dissociation constant, usually derived from enzyme kinetics or from competition with a known ligand.

Source of the values: patent publication US7435837B2, “Dihydrobenzofuranyl alkanamine derivatives and methods for using same” (Wyeth, priority 2003, dated 2008).
